Measurements published in patent publication US9980943B2, “Methods of treating muscular dystrophy” (BOARD OF REGENTS OF THE NEVADA SYSTEM OF HIGHER EDUCATION, …, priority 2013, dated 2018).

Experiments:
Type in all cases: cell-based, mouse
[1] = system: α7 integrin (LacZ reporter in α7βgal+/− myoblasts); test: Myoblast α7+/LacZ integrin FDG assay (Burkin assay in myoblasts, 96-well); conditions: 96-well; for Burkin Assay in Myoblasts, value relative to DMSO: SU9516 analogs, N=3-6; for Burkin Assay in Myoblasts, signal relative to DMSO: α7+/LacZ myoblasts
[2] = system: α7 integrin (LacZ reporter in α7+/LacZ myotubes); test: Myotube α7 integrin FDG assay (Burkin assay in myotubes, 96-well); conditions: for Burkin Assay in Myotubes, value relative to DMSO: SU9516 analogs, 96-well, N=3-6
[3] = system: β-galactosidase in CMV-LacZ C2C12 myoblasts; test: CMV-LacZ secondary screen in C2C12 myoblasts (β-Gal stabilizing assay); conditions: for CMV-LACZ in Myoblasts, value relative to DMSO: SU9516 analogs, C2C12 CMV-LacZ, N=2; for CMV-LACZ in Myoblasts (β-galactosidase activity relative to DMSO): CMV-LacZ C2C12 myoblasts
Procedure, shortened: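 CMV-LacZ C2C12 line (clonal, FDG-screened); myoblasts/myotubes dosed 0.5–40 μM (0.5, 1, 5, 10, 20, 40 μM); n=2 per point; β-gal stabilization read-out.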

[4] = system: β-galactosidase in CMV-LacZ C2C12 myotubes; test: CMV-LacZ secondary screen in C2C12 myotubes (β-Gal stabilizing assay); conditions: for CMV-LACZ in Myotubes, value relative to DMSO: SU9516 analogs, C2C12 CMV-LacZ, N=2; for CMV-LACZ in Myotubes, signal relative to DMSO: C2C12 CMV-LacZ myotubes, fold relative to DMSO
Procedure, shortened: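 A secondary screen identifies compounds that stabilize β-gal independently of the native promoter, using CMV-LacZ C2C12 cells. Curves span 0.5–40 μM at six levels, in duplicate.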

COc1ccc(C(=O)/C=C2/C(=O)Nc3ccccc32)cc1OC [MLS001163860-01]
Burkin Assay in Myoblasts, value relative to DMSO ([1]; 0.5 uM): 0.9494 | Burkin Assay in Myoblasts, value relative to DMSO ([1]; 1 uM): 0.8457 | Burkin Assay in Myoblasts, value relative to DMSO ([1]; 5 uM): 0.5793 | Burkin Assay in Myoblasts, value relative to DMSO ([1]; 10 uM): 0.4922 | Burkin Assay in Myoblasts, value relative to DMSO ([1]; 20 uM): 0.1722 | Burkin Assay in Myoblasts, value relative to DMSO ([1]; 40 uM): 0.2347 | Burkin Assay in Myotubes, value relative to DMSO ([2]; 0.5 uM): 1.009 | Burkin Assay in Myotubes, value relative to DMSO ([2]; 1 uM): 0.9404 | Burkin Assay in Myotubes, value relative to DMSO ([2]; 5 uM): 0.9223 | Burkin Assay in Myotubes, value relative to DMSO ([2]; 10 uM): 1.138 | Burkin Assay in Myotubes, value relative to DMSO ([2]; 20 uM): 0.862 | Burkin Assay in Myotubes, value relative to DMSO ([2]; 40 uM): 1.209 | CMV-LACZ in Myoblasts, value relative to DMSO ([3]; 0.5 uM): 0.9350 | CMV-LACZ in Myoblasts, value relative to DMSO ([3]; 1 uM): 0.8230 | CMV-LACZ in Myoblasts, value relative to DMSO ([3]; 5 uM): 0.9610 | CMV-LACZ in Myoblasts, value relative to DMSO ([3]; 10 uM): 1.1417 | CMV-LACZ in Myoblasts, value relative to DMSO ([3]; 20 uM): 0.3425 | CMV-LACZ in Myoblasts, value relative to DMSO ([3]; 40 uM): 0.6488 | CMV-LACZ in Myotubes, value relative to DMSO ([4]; 0.5 uM): 1.0352 | CMV-LACZ in Myotubes, value relative to DMSO ([4]; 1 uM): 1.1562 | CMV-LACZ in Myotubes, value relative to DMSO ([4]; 5 uM): 1.1250 | CMV-LACZ in Myotubes, value relative to DMSO ([4]; 10 uM): 1.2757 | CMV-LACZ in Myotubes, value relative to DMSO ([4]; 20 uM): 1.3880 | CMV-LACZ in Myotubes, value relative to DMSO ([4]; 40 uM): 1.4490

CCCn1c(-c2cc(OC)c(OC)c(OC)c2)nc2c1c(=O)[nH]c(=O)n2Cc1ccccc1 [MLS001174740-01]
Burkin Assay in Myoblasts, signal relative to DMSO ([1]; 0.5 uM): 1.221 | Burkin Assay in Myoblasts, signal relative to DMSO ([1]; 1 uM): 1.193 | Burkin Assay in Myoblasts, signal relative to DMSO ([1]; 5 uM): 0.8512 | Burkin Assay in Myoblasts, signal relative to DMSO ([1]; 10 uM): 1.181 | Burkin Assay in Myoblasts, signal relative to DMSO ([1]; 20 uM): 0.9658 | Burkin Assay in Myoblasts, signal relative to DMSO ([1]; 40 uM): 0.5414 | Burkin Assay in Myotubes, α7 integrin LacZ reporter signal relative to DMSO ([2]; 0.5 uM): 0.9078 | Burkin Assay in Myotubes, α7 integrin LacZ reporter signal relative to DMSO ([2]; 1 uM): 0.8687 | Burkin Assay in Myotubes, α7 integrin LacZ reporter signal relative to DMSO ([2]; 5 uM): 0.8574 | Burkin Assay in Myotubes, α7 integrin LacZ reporter signal relative to DMSO ([2]; 10 uM): 0.9017 | Burkin Assay in Myotubes, α7 integrin LacZ reporter signal relative to DMSO ([2]; 20 uM): 0.7823 | Burkin Assay in Myotubes, α7 integrin LacZ reporter signal relative to DMSO ([2]; 40 uM): 0.7064 | CMV-LACZ in Myoblasts (β-galactosidase activity relative to DMSO) ([3]; 0.5 uM): 1.2750 | CMV-LACZ in Myoblasts (β-galactosidase activity relative to DMSO) ([3]; 1 uM): 0.9721 | CMV-LACZ in Myoblasts (β-galactosidase activity relative to DMSO) ([3]; 5 uM): 1.0046 | CMV-LACZ in Myoblasts (β-galactosidase activity relative to DMSO) ([3]; 10 uM): 0.9490 | CMV-LACZ in Myoblasts (β-galactosidase activity relative to DMSO) ([3]; 20 uM): 0.4293 | CMV-LACZ in Myoblasts (β-galactosidase activity relative to DMSO) ([3]; 40 uM): 0.4578 | CMV-LACZ in Myotubes, signal relative to DMSO ([4]; 0.5 uM): 0.8533 | CMV-LACZ in Myotubes, signal relative to DMSO ([4]; 1 uM): 0.9267 | CMV-LACZ in Myotubes, signal relative to DMSO ([4]; 5 uM): 0.9101 | CMV-LACZ in Myotubes, signal relative to DMSO ([4]; 10 uM): 1.0520 | CMV-LACZ in Myotubes, signal relative to DMSO ([4]; 20 uM): 1.0568 | CMV-LACZ in Myotubes, signal relative to DMSO ([4]; 40 uM): 0.8863

Cc1ccc2c(c1)/C(=C/c1ccc(F)cc1)C(=O)N2 [MLS001202366-01]
Burkin Assay in Myoblasts, value relative to DMSO ([1]; 0.5 uM): 1.007 | Burkin Assay in Myoblasts, value relative to DMSO ([1]; 1 uM): 0.9698 | Burkin Assay in Myoblasts, value relative to DMSO ([1]; 5 uM): 0.8762 | Burkin Assay in Myoblasts, value relative to DMSO ([1]; 10 uM): 0.7458 | Burkin Assay in Myoblasts, value relative to DMSO ([1]; 20 uM): 0.4873 | Burkin Assay in Myoblasts, value relative to DMSO ([1]; 40 uM): 0.2456 | Burkin Assay in Myotubes, value relative to DMSO ([2]; 0.5 uM): 1.114 | Burkin Assay in Myotubes, value relative to DMSO ([2]; 1 uM): 1.099 | Burkin Assay in Myotubes, value relative to DMSO ([2]; 5 uM): 1.089 | Burkin Assay in Myotubes, value relative to DMSO ([2]; 10 uM): 0.9194 | Burkin Assay in Myotubes, value relative to DMSO ([2]; 20 uM): 0.5272 | Burkin Assay in Myotubes, value relative to DMSO ([2]; 40 uM): 0.5105 | CMV-LACZ in Myoblasts, value relative to DMSO ([3]; 0.5 uM): 0.7656 | CMV-LACZ in Myoblasts, value relative to DMSO ([3]; 1 uM): 0.6431 | CMV-LACZ in Myoblasts, value relative to DMSO ([3]; 5 uM): 1.0533 | CMV-LACZ in Myoblasts, value relative to DMSO ([3]; 10 uM): 1.3214 | CMV-LACZ in Myoblasts, value relative to DMSO ([3]; 20 uM): 0.7222 | CMV-LACZ in Myoblasts, value relative to DMSO ([3]; 40 uM): 0.3322 | CMV-LACZ in Myotubes, value relative to DMSO ([4]; 0.5 uM): 0.9844 | CMV-LACZ in Myotubes, value relative to DMSO ([4]; 1 uM): 1.0570 | CMV-LACZ in Myotubes, value relative to DMSO ([4]; 5 uM): 0.8072 | CMV-LACZ in Myotubes, value relative to DMSO ([4]; 10 uM): 0.9927 | CMV-LACZ in Myotubes, value relative to DMSO ([4]; 20 uM): 0.8329 | CMV-LACZ in Myotubes, value relative to DMSO ([4]; 40 uM): 1.0847
